For twelve molecules, TGI results are on record in PubChem BioAssay (NCI).

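Grown in 96-well plates, cells were treated for 48 hours with each compound at five concentrations. Insufficient inhibition: endpoint recorded as highest concentration tested. TGI: concentration producing complete growth inhibition.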 A value given as a limit tells only on which side of the number the result lay.

Some test systems named below: EKVX NSCLC; UACC-62 melanoma; SK-MEL-28 melanoma; SF-268 CNS; XF 498 CNS; MOLT-4 leukemia; SK-OV-3 ovarian; KM12 colon; ACHN renal; SK-MEL-2 melanoma; LOX IMVI melanoma; UO-31 renal; NCI-H23 lung; SNB-75 CNS; OVCAR-8 ovarian; M14 melanoma; SF-295 CNS; MCF7 breast; BT-549 breast; UACC-257 melanoma.
Holding throughout (assay): NCI tumour cell line growth inhibition, 48 h

Regarding `COC1=C(C)C(=O)C2C(C1=O)C(c1ccc(OC)c(OC)c1)[C@H]2C` (stereo not given in full), the TGI with EKVX NSCLC, with UACC-62 melanoma, with SK-MEL-28 melanoma, with SF-268 CNS, with XF 498 CNS and in the test on MOLT-4 leukemia was greater than 100 µM each time. Moreover, the TGI in the test on SK-OV-3 ovarian, in the test on KM12 colon, in the test on ACHN renal, with SK-MEL-2 melanoma, in the test on LOX IMVI melanoma and in the test on UO-31 renal was greater than 100 µM throughout. For the same molecule, the TGI in the test on NCI-H23 lung, in the test on SNB-75 CNS, in the test on OVCAR-8 ovarian, in the test with M14 melanoma and with SF-295 CNS was greater than 100 µM in each case.

On to `Cn1c(=O)c2c(ncn2CCCCn2ccnc2[N+](=O)[O-])n(C)c1=O`, for which the TGI in the test with EKVX NSCLC, in the test with UACC-62 melanoma, with SK-MEL-28 melanoma, with SF-268 CNS, in the test on XF 498 CNS and in the test on MOLT-4 leukemia was greater than 100 µM in each case. In addition, the TGI in the test on KM12 colon, in the test on ACHN renal, in the test with SK-MEL-2 melanoma, with LOX IMVI melanoma, with UO-31 renal and in the test with NCI-H23 lung was greater than 100 µM in each case. For the same molecule, the TGI in the test on SNB-75 CNS, in the test on OVCAR-8 ovarian, in the test with M14 melanoma and in the test on SF-295 CNS was greater than 100 µM in each case.

For `NC(N)=NS(=O)(=O)c1ccc(Nc2c3ccccc3nc3ccc(C(=O)Nc4ccc(S(N)(=O)=O)cc4)cc23)cc1`, the TGI in the test with EKVX NSCLC, in the test with UACC-62 melanoma, in the test on MCF7 breast, with BT-549 breast, with SK-MEL-28 melanoma and in the test with UACC-257 melanoma was greater than 100 µM throughout. Moreover, the TGI in the test on SF-268 CNS, with MOLT-4 leukemia, in the test with SK-OV-3 ovarian, in the test on KM12 colon, in the test with ACHN renal and in the test with SK-MEL-2 melanoma was greater than 100 µM in each case. For the same molecule, the TGI in the test with LOX IMVI melanoma, with UO-31 renal, in the test with NCI-H23 lung, in the test with SNB-75 CNS, with OVCAR-8 ovarian and in the test on M14 melanoma was greater than 100 µM each time. Besides, in the test on SF-295 CNS, the TGI was greater than 100 µM.

With `N#Cc1ccc(Nc2cnc3cc(N)ccc3n2)cc1`, the TGI with EKVX NSCLC, with UACC-62 melanoma, in the test with SK-MEL-28 melanoma, in the test with UACC-257 melanoma, in the test with SF-268 CNS and with XF 498 CNS was greater than 100 µM throughout. The TGI in the test on MOLT-4 leukemia, in the test with SK-OV-3 ovarian, in the test with KM12 colon, with ACHN renal, in the test on SK-MEL-2 melanoma and in the test on LOX IMVI melanoma was greater than 100 µM in each case. Besides, the TGI in the test on UO-31 renal, with NCI-H23 lung, in the test with SNB-75 CNS, with OVCAR-8 ovarian, in the test with M14 melanoma and in the test on SF-295 CNS was greater than 100 µM in each case.

Take `CC(=O)OCC1OC(O[C@@H]2C[C@H]3C(C)(C)[C@H](OC(C)=O)CC[C@]3(C)[C@H]3CC[C@@]45C[C@H](O)C[C@H](C)[C@@H]4CC=C5[C@@]32C)C(O)C(O)C1O` (stereo not given in full): the TGI in the test on EKVX NSCLC stood at 22 µM; with UACC-62 melanoma, 16.6 µM; in the test on MCF7 breast, 11 µM; in the test on BT-549 breast, 12.7 µM; in the test on SK-MEL-28 melanoma, 19.4 µM; in the test on UACC-257 melanoma, 17.8 µM. Moreover, the TGI amounted to 15.6 µM in the test on SF-268 CNS; 6.33 µM with MOLT-4 leukemia; 22 µM in the test on SK-OV-3 ovarian; 7.59 µM with KM12 colon; 18.5 µM in the test with ACHN renal; 5.93 µM in the test on SK-MEL-2 melanoma. The TGI in the test on LOX IMVI melanoma turned out to be 4.07 µM; in the test with UO-31 renal, 26.3 µM; with NCI-H23 lung it was 18.3 µM; in the test with SNB-75 CNS it was 10.9 µM; in the test on OVCAR-8 ovarian, 17.4 µM; in the test with M14 melanoma, 14.8 µM. In the test on SF-295 CNS, this molecule displayed a TGI of 12.5 µM.

In the case of `Nc1nc(N)nc(-c2cnc3ccccc3c2)n1`, the TGI with EKVX NSCLC, in the test with UACC-62 melanoma, in the test on MCF7 breast, with BT-549 breast, in the test on SK-MEL-28 melanoma and in the test on UACC-257 melanoma was greater than 100 µM in each case. The TGI in the test with SF-268 CNS, with MOLT-4 leukemia, in the test on SK-OV-3 ovarian, with KM12 colon, in the test with ACHN renal and in the test with SK-MEL-2 melanoma was greater than 100 µM throughout. Also, the TGI in the test on LOX IMVI melanoma, with UO-31 renal, in the test on NCI-H23 lung, in the test on SNB-75 CNS, in the test with OVCAR-8 ovarian and in the test on M14 melanoma was greater than 100 µM each time. This molecule registered a TGI with SF-295 CNS greater than 100 µM.

In the case of `Cc1cc2c(cc1C)C(=O)c1ncccc1C2=O`, the TGI is greater than 100 µM in the test on EKVX NSCLC; greater than 100 µM in the test with UACC-62 melanoma; greater than 100 µM with MCF7 breast; greater than 100 µM in the test with BT-549 breast; greater than 100 µM in the test on SK-MEL-28 melanoma; 46.3 µM in the test on UACC-257 melanoma. Further, the TGI was greater than 100 µM with SF-268 CNS; 74.2 µM with MOLT-4 leukemia; greater than 100 µM in the test with SK-OV-3 ovarian; greater than 100 µM in the test on KM12 colon; greater than 100 µM in the test on ACHN renal; greater than 100 µM in the test on SK-MEL-2 melanoma. Further, the TGI is greater than 100 µM in the test with LOX IMVI melanoma; greater than 100 µM with UO-31 renal; 50.9 µM in the test on NCI-H23 lung; greater than 100 µM in the test on SNB-75 CNS; greater than 100 µM in the test on OVCAR-8 ovarian; greater than 100 µM in the test with M14 melanoma. This molecule also came in with a TGI in the test with SF-295 CNS greater than 100 µM.

Turning to `O=C1CCCCC1C1(O)C(=O)Nc2cc(F)ccc21` (stereo not given), the TGI with EKVX NSCLC, in the test with UACC-62 melanoma, with SK-MEL-28 melanoma, with UACC-257 melanoma, with SF-268 CNS and with XF 498 CNS was greater than 100 µM throughout. In addition, the TGI with MOLT-4 leukemia, in the test on SK-OV-3 ovarian, in the test with KM12 colon, in the test on ACHN renal, in the test on SK-MEL-2 melanoma and in the test on LOX IMVI melanoma was greater than 100 µM in each case. In addition, the TGI in the test with UO-31 renal, in the test on NCI-H23 lung, in the test on SNB-75 CNS, in the test on OVCAR-8 ovarian, with M14 melanoma and in the test on SF-295 CNS was greater than 100 µM each time.

Regarding `COC(=O)C(CCC1(C)OCCO1)C(C)=O` (stereo not given), the TGI in the test with EKVX NSCLC, in the test with SK-MEL-28 melanoma, in the test with UACC-257 melanoma, with SF-268 CNS, with XF 498 CNS and in the test on MOLT-4 leukemia was greater than 100 µM throughout. Further, the TGI in the test on SK-OV-3 ovarian, in the test on KM12 colon, in the test on ACHN renal, in the test with SK-MEL-2 melanoma, in the test on LOX IMVI melanoma and in the test on UO-31 renal was greater than 100 µM in each case. For the same molecule, the TGI in the test with NCI-H23 lung, with SNB-75 CNS, in the test on OVCAR-8 ovarian, in the test on M14 melanoma and in the test on SF-295 CNS was greater than 100 µM each time.

For `CNC(=S)NNC(=O)c1c(C)nc2sccn12`, the TGI with EKVX NSCLC, in the test with UACC-62 melanoma, in the test on SK-MEL-28 melanoma, in the test on UACC-257 melanoma, with SF-268 CNS and in the test on XF 498 CNS was greater than 100 µM each time. Besides, the TGI with MOLT-4 leukemia, in the test on SK-OV-3 ovarian, in the test with KM12 colon, in the test with ACHN renal, in the test on SK-MEL-2 melanoma and in the test with LOX IMVI melanoma was greater than 100 µM in each case. In addition, the TGI in the test with NCI-H23 lung, in the test on OVCAR-8 ovarian and in the test with SF-295 CNS was greater than 100 µM in each case.

On to `Cc1cc(C)c2c(=O)n(CN3CCN(c4ccccc4)CC3)sc2n1`, for which the TGI with EKVX NSCLC is 70.1 µM; in the test on UACC-62 melanoma, greater than 100 µM; with MCF7 breast it was greater than 100 µM; with BT-549 breast, greater than 100 µM; in the test with SK-MEL-28 melanoma it was greater than 100 µM; in the test with UACC-257 melanoma, greater than 100 µM. In addition, the TGI in the test with SF-268 CNS was greater than 100 µM; in the test with MOLT-4 leukemia, 58.7 µM; in the test with SK-OV-3 ovarian it was greater than 100 µM; with KM12 colon, greater than 100 µM; in the test with ACHN renal it was 35.2 µM; in the test with SK-MEL-2 melanoma it was 33.9 µM. In addition, the TGI was 44.1 µM in the test with LOX IMVI melanoma; 40.7 µM in the test on UO-31 renal; 85.2 µM in the test on NCI-H23 lung; 42.7 µM in the test on SNB-75 CNS; greater than 100 µM in the test on OVCAR-8 ovarian; 76.6 µM with M14 melanoma. The TGI with SF-295 CNS is greater than 100 µM.

For the molecule `CNC(=S)NNC1=NCCCN1`, the TGI with EKVX NSCLC, in the test on UACC-62 melanoma, in the test on MCF7 breast, with BT-549 breast, in the test on SK-MEL-28 melanoma and in the test with UACC-257 melanoma was greater than 100 µM in each case. Besides, the TGI in the test with SF-268 CNS, in the test with MOLT-4 leukemia, in the test on SK-OV-3 ovarian, with KM12 colon, in the test on ACHN renal and in the test with SK-MEL-2 melanoma was greater than 100 µM each time. Further, the TGI in the test on LOX IMVI melanoma, with UO-31 renal, with NCI-H23 lung, in the test on SNB-75 CNS, in the test on OVCAR-8 ovarian and with M14 melanoma was greater than 100 µM throughout. The TGI in the test on SF-295 CNS is greater than 100 µM.
